Test results from PMC4552634, “A New Set of Chemical Starting Points with Plasmodium falciparum Transmission-Blocking Potential for Antimalarial Drug Discovery” (PLoS ONE, 2015).
Where two headings read alike, the source gives them in different places.

Experiments:
[1] = Cytotoxicity in HepG2 cells (intracellular ATP, ATPlite, 48 h); format: cell-based, human; conditions: human, HepG2 cells, IC50 per ratio column head, unit inferred; for IC50 at 48 h: read-out: Cytotoxicity in HepG2
Description: (§1) Cells were grown and maintained in EMEM (Sigma-Aldrich) supplemented with 2mM L-glutamine (Sigma-Aldrich) and 10% fetal calf serum (Perbio). […] Passages were routinely made upon reaching 80–90% confluence. For cytotoxicity experiments, cells were seeded onto 96-well clear bottom black plates coated with type I collagen (Biocoat, Becton Dickinson) at a cell density of 20,000 cells/well.
(§2) To determine cytotoxic effects, represented by the Tox50 value (the concentration of drug that reduces cell viability by 50%), cells were exposed to serial dilutions of compounds for 48 h at 37°C. The assay medium was as previously described, but supplemented with 5% fetal calf serum instead of 10%. […] In the presence of ATP, luminescence is emitted as the reaction described earlier for the BacTiter-Glo kit. Percentages of inhibition were calculated relative to vehicle control wells.

[2] = tested on: P. falciparum asexual stages; conditions: asexual stages; TCAMS data; read-out: IC50 asexual; cited from earlier work
[3] = tested on: P. falciparum stage V gametocytes; assay: Gametocytocidal ATP bioluminescence assay (single point 5 μM and 1 μM, dose-response); format: cell-based, Plasmodium falciparum; conditions: for Ratio IC50 HepG2/IC50 P. falciparum: IC50 HepG2 divided by IC50 P. falciparum gametocytes; for % Inhibition: 5 μM single concentration, 48 h, decrease of ATP level (S1 Table)
Description: Purified stage IV-V gametocytes were obtained as previously described [10]. Single point ATP bioluminescence assay and dose–response of positive hits was determined in accordance with the previously published protocol [10].

[4] = tested on: P. falciparum stage V gametocytes; assay: microbe, parasite or virus in culture; parameters: BacTiter-Glo ATP luminescence viability of purified stage V gametocytes in 384-well plates, per cent inhibition versus DMSO
HepG2 cells = assay: Cytotoxicity in HepG2 cells (intracellular ATP, ATPlite, 48 h); format: cell-based, human; conditions: HepG2 cells; IC50 per ratio column head; unit inferred
Description: as §1, §2

[5] = Plasmodium falciparum, read-out: IC50 Pf Gametocytes average, IC50 (µM) average
[6] = sexual stages (gametocytes), dose-response, read-out: IC50 sexual
[7] = Plasmodium falciparum, 48 h, read-out: % Inhibition
[8] = Plasmodium falciparum, P. falciparum gametocytes, average, read-out: IC50 Pf Gametocytes average, IC50 (µM) average
[9] = P. falciparum gametocytes, average, read-out: IC50 Pf Gametocytes average, IC50 (µM) average

Compound: FC(F)(F)c1ccc2[nH]c(-c3ccc(-c4ccc(CNCCN5CCNCC5)cc4)s3)nc2c1 [TCMDC-132862]
- IC50 at 48 h [1]: 6.9 µM
- IC50 [2]: 0.91 µM
- Ratio IC50 HepG2/IC50 P. falciparum [3]: 5.37
- IC50 [3, 5]: 1.29 µM
- IC50 ([3]; Plasmodium falciparum, read-out: IC50 sexual): 1.28 µM
- %_Inh ([3]; gametocytes, primary screen at 5 μM (S10 Table, MCSI analogs)): 105.547%

Compound: Cl.c1ccc2c(NCCCCCCCCCNc3c4ccccc4nc4ccccc34)c3ccccc3nc2c1 [TCMDC-124286]
- IC50 [1]: 6.1 µM
- IC50 [2]: 0.298 µM
- Ratio IC50 HepG2/IC50 P. falciparum [3]: 4
- IC50 [3, 5]: 1.5 µM
- IC50 [3, 6]: 1.5 µM

Compound: COc1ccc2c(NN=CC=Cc3ccccc3)cc(C)nc2c1 [TCMDC-142096]
- % Inhibition ([3]; P. falciparum gametocytes): 34%
- inhibition at 5 µM [4, 7]: 34%

Compound: Cl.c1ccc2c(Nc3ccc(Cc4ccc(Nc5c6ccccc6nc6ccccc56)cc4)cc3)c3ccccc3nc2c1 [TCMDC-137354]
- IC50 at 48 h [1]: 4.49 µM
- IC50 [2]: 0.162 µM
- Ratio IC50 HepG2/IC50 P. falciparum [3]: 2
- IC50 [3, 8]: 2.3 µM

Compound: COc1ccc(CCNc2nc(NCc3ccccc3)c3cc(OC)c(OC)cc3n2)cc1OC [TCMDC-132017]
- IC50 at 48 h [1]: 4.58 µM
- IC50 [2]: 0.326 µM
- Ratio IC50 HepG2/IC50 P. falciparum [3]: 0.818
- IC50 [3, 8]: 5.6 µM

Compound: Nc1cc(/C=C/c2ccc([N+](=O)[O-])s2)nc2ccccc12 [TCMDC-142296]
- IC50 (HepG2 cells): 7.6 µM
- IC50 [2]: 0.76 µM
- Ratio IC50 HepG2/IC50 P. falciparum [3]: 13
- IC50 [3, 9]: 0.6 µM
- IC50 [3, 6]: 0.595 µM
- inhibition at 5 µM [4, 7]: 111%

Compound: Fc1ccc2c(NN=Cc3ccc(Cl)cc3)ccnc2c1 [TCMDC-142097]
- % Inhibition ([3]; P. falciparum gametocytes): 61%
- inhibition at 5 µM [4, 7]: 61.1%

Compound: Fc1ccc2c(NN=Cc3ccccc3)ccnc2c1 [TCMDC-142100]
- % Inhibition ([3]; P. falciparum gametocytes): 16%
- inhibition at 5 µM [4, 7]: 16.3%

Compound: S=C(NN=Cc1ccccn1)Nc1ccc(Cl)c(Cl)c1 [TCMDC-125522]
- IC50 at 48 h [1]: 9.1 µM
- IC50 [2]: 0.768 µM
- Ratio IC50 HepG2/IC50 P. falciparum [3]: 130
- IC50 [3, 8]: 0.07 µM

Compound: COc1ccc2nc3cc(Cl)ccc3c(NCCCCN3CCNCC3)c2c1 [TCMDC-137578]
- IC50 at 48 h [1]: 5 µM
- IC50 [2]: 0.183 µM
- Ratio IC50 HepG2/IC50 P. falciparum [3]: 7.58
- IC50 [3, 8]: 0.66 µM

Compound: COc1cc2nc(NCc3cccc(CNC(=O)c4ccc(-c5ccc(C(C)=O)cc5)cc4)c3)nc(N)c2cc1OC.O=C(O)C(F)(F)F [TCMDC-138177]
- IC50 at 48 h [1]: 9.5 µM
- IC50 [2]: 0.118 µM
- Ratio IC50 HepG2/IC50 P. falciparum [3]: 5
- IC50 [3, 8]: 2 µM
- IC50 [3, 6]: 2 µM

Compound: O=[N+]([O-])c1cccc(/C=N/Nc2ccnc3cc(F)ccc23)c1 [TCMDC-142098]
- % Inhibition ([3]; P. falciparum gametocytes): 42%
- inhibition at 5 µM [4, 7]: 42.1%

Compound: N=C(NCCCCC1CCCCC1)c1cccc(C(=N)NCCCCC2CCCCC2)n1 [TCMDC-137452]
- IC50 at 48 h [1]: 1.6 µM
- IC50 [2]: 0.395 µM
- Ratio IC50 HepG2/IC50 P. falciparum [3]: 7
- IC50 [3, 8]: 0.22 µM

Compound: C=C[C@H]1CN(CCCCCCC)CC[C@H]1CCNc1ccnc2ccc(OC)cc12 [TCMDC-139204]
- IC50 at 48 h [1]: 3.4 µM
- IC50 [2]: 0.062 µM
- Ratio IC50 HepG2/IC50 P. falciparum [3]: 3
- IC50 [3, 8]: 1.08 µM

Compound: CC(C)c1ccc(CN2CCC(CNC(=O)c3cc(-c4cccc(F)c4)cs3)C2)cc1 (stereo not drawn) [TCMDC-134437]
- IC50 at 48 h [1]: 5.3 µM
- IC50 [2]: 1.66 µM
- Ratio IC50 HepG2/IC50 P. falciparum [3]: 12
- IC50 [3, 8]: 0.45 µM
- IC50 [3, 6]: 0.455 µM

Compound: Nc1c(I)cc(C(=O)Nc2ccc3nc4c(c(N)c3c2)CCCC4)cc1I [TCMDC-142289]
- IC50 (HepG2 cells): 8.03 µM
- IC50 [2]: 0.143 µM
- Ratio IC50 HepG2/IC50 P. falciparum [3]: 20
- IC50 [3, 9]: 0.41 µM
- inhibition at 5 µM [4, 7]: 108%

Compound: Clc1ccc(C=NNc2ccnc3ccccc23)cc1 [TCMDC-142099]
- % Inhibition ([3]; P. falciparum gametocytes): -69%
- inhibition at 5 µM [4, 7]: -69.1%

Compound: Cc1cc(NN=CC=Cc2ccccc2)c2ccc(F)cc2n1 [TCMDC-142176]
- inhibition at 5 µM [4, 7]: -23.9%

Compound: CCCCN(CCCC)CC(O)c1cc(-c2ccc(Cl)cc2)nc2c(Cl)cc(Cl)cc12 (stereo not drawn) [TCMDC-142268]
- inhibition at 5 µM [4, 7]: -20.8%

Compound: C=CCN1Cc2c(O)cccc2C(c2ccc(O)c(O)c2)C1 (stereo not drawn) [TCMDC-142270]
- inhibition at 5 µM [4, 7]: -127%

Compound: Cc1cc(F)ccc1Nc1nc(N(C)c2ccccc2)c2cc(OCCN(C)C)ccc2n1 [TCMDC-142333]
- inhibition at 5 µM [4, 7]: 31.3%

Compound: Cc1ccccc1Nc1cc(Nc2ccccc2C)c2ccccc2n1 [TCMDC-142337]
- inhibition at 5 µM [4, 7]: 98.8%

Compound: Oc1ccc(Br)cc1-c1nc2ccc(Cl)cc2nc1-c1cc(Br)ccc1O [TCMDC-142219]
- inhibition at 5 µM [4, 7]: 82.4%

Compound: Fc1ccc2c(NN=CC=Cc3ccccc3)ccnc2c1 [TCMDC-142112]
- inhibition at 5 µM [4, 7]: 93.5%

Compound: COc1ccc(C=Cc2cc(N)c3ccccc3n2)cc1Br [TCMDC-142285]
- inhibition at 5 µM [4, 7]: 39.4%

Compound: COc1ccc2nccc(NN=Cc3cccc(Cl)c3)c2c1 [TCMDC-142125]
- inhibition at 5 µM [4, 7]: 11.8%

Compound: Cc1ccc(C2(O)CC3CCC(C2)N3C)cc1 (stereo not drawn) [TCMDC-142260]
- inhibition at 5 µM [4, 7]: 10.6%

Compound: CN=C(NO)NCCN(C)C [TCMDC-142305]
- inhibition at 5 µM [4, 7]: -1.82%

Compound: Cc1cc(NN=Cc2ccc(Cl)cc2)c2ccc(F)cc2n1 [TCMDC-142160]
- inhibition at 5 µM [4, 7]: -41.4%

Compound: COc1ccc2c(NN=Cc3ccc(Cl)cc3)ccnc2c1 [TCMDC-142105]
- inhibition at 5 µM [4, 7]: -15.3%

Compound: CC1(C)N=C(N)N=C(N)N1c1ccc(Cl)c(Cl)c1 [TCMDC-142180]
- inhibition at 5 µM [4, 7]: 61.6%

Compound: CCCCCC(C)C(C)c1cc(O)c2c3c(c(=O)oc2c1)CN(Cc1ccccc1)CC3 (stereo not drawn) [TCMDC-142182]
- inhibition at 5 µM [4, 7]: 75.7%

Compound: CC(C)c1cc(Oc2c(I)cc(CCNCc3ccccc3)cc2I)ccc1O [TCMDC-142300]
- inhibition at 5 µM [4, 7]: -73.5%

Compound: CCOC(=O)CCCN1C(=O)CN=C(c2ccccc2)c2cc(Cl)ccc21 [TCMDC-142274]
- inhibition at 5 µM ([4]; Plasmodium falciparum, 48 h; read-out: % Inhibition): -8.73%

Compound: Nc1c2c(nc3ccc(NC(=O)c4ccc([N+](=O)[O-])cc4)cc13)CCCC2 [TCMDC-142291]
- inhibition at 5 µM [4, 7]: 60.6%

Compound: COc1cccc2c(NN=Cc3ccccc3F)ccnc12 [TCMDC-142181]
- inhibition at 5 µM [4, 7]: -26%

Compound: COc1ccc2c(N/N=C/c3ccc([N+](=O)[O-])cc3)ccnc2c1 [TCMDC-142108]
- inhibition at 5 µM [4, 7]: 91.3%

Compound: CCCNc1nc(Nc2ccccc2C)nc2ccccc12 [TCMDC-142326]
- inhibition at 5 µM [4, 7]: 78.9%

Compound: OC(c1cc(C(F)(F)F)nc2c(F)cccc12)C1CCCCN1 (stereo not drawn) [TCMDC-142228]
- inhibition at 5 µM [4, 7]: 37.8%

Compound: Fc1ccc2nccc(NN=CC=Cc3ccccc3)c2c1 [TCMDC-142123]
- inhibition at 5 µM [4, 7]: -73.4%

Compound: Cc1ccccc1Nc1nc(Nc2ccccc2)c2ccccc2n1 [TCMDC-142324]
- inhibition at 5 µM [4, 7]: 28.6%

Compound: Cc1cc(NN=Cc2ccc(F)cc2)c2ccc(C(F)(F)F)cc2n1 [TCMDC-142159]
- inhibition at 5 µM [4, 7]: -183%

Compound: CC(C)c1cc(Oc2c(I)cc(CCCc3ncc[nH]3)cc2I)ccc1O [TCMDC-142307]
- inhibition at 5 µM [4, 7]: -127%

Compound: CCOc1ccc2c(NN=Cc3c4ccccc4cc4ccccc34)cc(C)nc2c1 [TCMDC-142209]
- inhibition at 5 µM [4, 7]: 106%

Compound: CCCCCCCCNCC(O)c1cc(-c2ccc(Cl)cc2)nc2cc(C)ccc12 (stereo not drawn) [TCMDC-142223]
- inhibition at 5 µM [4, 7]: -7.88%

Compound: CN(C)c1ccc(C=Cc2ccc3ccccc3n2)c(Cl)c1 [TCMDC-142212]
- inhibition at 5 µM [4, 7]: 36.3%

Compound: [O-][s+]1nc(NCCCN(Cc2cccs2)c2ccccn2)c(NCc2ccccc2)n1 (stereo not drawn) [TCMDC-142312]
- inhibition at 5 µM [4, 7]: 5.1%

Compound: COc1cccc2c(NN=Cc3ccc(Cl)cc3)ccnc12 [TCMDC-142106]
- inhibition at 5 µM [4, 7]: -26.4%

Compound: Oc1ccc(CCCc2cc(Oc3c(I)cc(CCc4ncc[nH]4)cc3I)ccc2O)cc1 [TCMDC-142308]
- inhibition at 5 µM [4, 7]: -67%

Compound: COc1ccc2c(NN=Cc3ccc(F)cc3)ccnc2c1 [TCMDC-142135]
- inhibition at 5 µM [4, 7]: 5.77%
